Test results published in US8680126B2, “Fluorinated thiazoles for use in treating cancer” (Universitat de Barcelona, priority 2010, dated 2014).

Experiments:
[1] = tested on: Ramos cells (B lymphocytes from Burkitt's lymphoma with mutated TP53); assay: Dose-response analysis of apoptosis by flow cytometry in Ramos cells; format: cell-based, human; details: 24 hours; for IC50: Homo sapiens, flow cytometry; for induction of apoptosis (dose-response): doses from 2 to 40 μM
Method: (§1) The human cell lines Jurkat (T lymphocytes from acute T cell leukemia), Ramos (B lymphocytes from Burkitt's lymphoma), TK6 (human lymphoblast cell line) HeLa (epithelial cervical carcinoma cell line), MDA-MB 231 (epithelial breast adenocarcinoma cell line), T98-G (glioblastoma cell line) and Hep3B (hepatocellular carcinoma cell line) were obtained from the European Collection of Cell Cultures.
(§2) Jurkat, Ramos, TK6 and CLL cells were grown in RPMI-1640 medium, and HeLa cells in DMEM medium, both containing 10% heat-inactivated fetal calf serum, 1% glutamine, and 1% penicillin-streptomycin. MDA-MB 231 cells were grown in DMEM/F-12 medium containing additionally 1% pyruvate. Hep3B cells were maintained in MEM medium supplemented with 10% fetal bovine serum. All were maintained at 37° C. in humidified atmosphere containing 5% carbon dioxide.
(§3) 0.25-0.3×10^6 cells were washed in phosphate-buffered saline (PBS) and resuspended in 100 μl of annexin binding buffer and incubated with 1 μl of annexin V-Fluorescein-5-isothiocyanate (FITC) or annexin V-Allophycocyanin (APC). After 20 min of incubation in the dark at room temperature, 100 μl of annexin binding buffer with 5 μl of propidium iodide (PI) (20 μg/ml) was added just before flow cytometric analysis. Data were analyzed using the appropriate software. Cell viability was measured by analysis of phosphatidylserine exposure and PI uptake and it is expressed as the percentage of annexin-V and PI double-negative cells.
Ramos cells (B lymphocytes from Burkitt's lymphoma with mutated TP53) were incubated with a range of doses from 2 to 40 μM of compounds Ia and Id for 24 hours.
(§4) The IC50 of compounds Ia and Id was calculated at 24 hours by flow cytometry analysis, except for Hep3B where crystal violet assay was used. The results are expressed in Table 4 as the percentage of viable cells in respect to untreated cells at 24 hours.

[2] = tested on: Jurkat cell line (T lymphocytes from acute T cell leukemia, mutated TP53); assay: Screening assay in Jurkat cells by measuring cell viability (flow cytometry), single dose; format: cell-based, human; set-up: key: “+” means low activity; “++” means good activity; “+++” means very good activity; “−” means no activity; details: single dose of 40 μM, 24 hour-incubation
Method: as §1, §2, §3
A screening of the effect of compounds Ia-If was performed in Jurkat cell line (T lymphocytes form acute T cell leukemia) at a single dose of 40 μM for 24 hour-incubation.
Jurkat cells were selected among other leukemic tumor cell lines because they have the protein TP53 mutated.
Every compound mentioned above was dissolved in the minimum amount of DMSO necessary to be dissolved. Cell viability was measured by flow cytometry analysis. […] Thus, all the observed effects on cell viability are due to the compounds' activity.
The results are summarized in Table 2: “+” means low activity; “++” means good activity and “+++” means very good activity; “−” means no activity.

[3] = tested on: Jurkat cells (T lymphocytes from acute T cell leukemia with mutated TP53); assay: Dose-response analysis of apoptosis by flow cytometry in Jurkat cells; format: cell-based; details: Homo sapiens, 24 hours, flow cytometry (annexin-V negative cells in respect to untreated cells)
Method: as §1, §2, §3
(§5) Dose-response analysis was performed using Jurkat mutated-TP53 cancer cells and inactivated p53 cancer cell line HeLa.
(§6) Cell viability was measured by flow cytometry and it is expressed as the percentage of nonapoptotic cells (annexin-V negative) in respect to untreated cells at 24 hours. Therefore, values under 100% are indicative of apoptosis or loss of cell viability.
Jurkat cells (which are T lymphocytes from acute T cell leukemia with mutated TP53) were incubated with a range of doses from 1 to 40 μM of each compound for 24 hours.
(§7) The IC50 at 24 hours was calculated for each compound using flow cytometry analysis. The results are expressed in Table 3 as the percentage of nonapoptotic cells (annexin-V negative) in respect to untreated cells at 24 hours.
Jurkat cells (which are T lymphocytes from acute T cell leukemia with mutated TP53) were incubated with a range of doses from 5 to 40 μM of each compound for 24 hours.

[4] = tested on: B-CLL cells from patients with wild-type TP53; assay: Dose-response analysis of apoptosis by flow cytometry in B-CLL cells, wild-type TP53; format: cell-based, human; details: 24 hours; for induction of apoptosis (dose-response): B-CLL cells wild-type TP53, doses from 1 to 20 μM
Method: as §2
(§8) Peripheral blood lymphocytes from CLL patients were obtained from the Haematology Unit at the IDIBELL-Hospital de Bellvitge, L'Hospitalet de Llobregat, Barcelona, Spain. CLL was diagnosed according to standard clinical and laboratory criteria. Written informed consent was obtained from all patients, in accordance with the Hospital de Bellvitge's Ethical Committee. Mononuclear cells from heparinized peripheral blood samples were isolated by centrifugation on a Ficoll-Hypaque (Seromed, Berlin, Germany) gradient. The purity of CLL samples was evaluated with allophycocyanin (APC)-conjugated anti-CD3 and phycoerythrin (PE)-conjugated anti-CD19 (Becton Dickinson, Frankiln Lakes, N.J., USA). Data were analysed by flow cytometry and the analysis was performed with the appropriate software.
as §3
B-CLL cells from patients with wild-type TP53 were incubated with a range of doses from 1 to 20 μM of compounds Ia and Id for 24 hours. […]

[5] = tested on: B-CLL cells from patients with mutated TP53; assay: Dose-response analysis of apoptosis by flow cytometry in B-CLL cells, mutated TP53; format: cell-based, human; details: B-CLL cells mutated TP53, doses from 1 to 20 μM, 24 hours
Method: as §2
as §8, with “Mononuclear cells from heparinized peripheral blood samples were isolated by centrifugation on a Ficoll-Hypaque (Seromed, Berlin, Germany) gradient.” left out
(§9) 0.25-0.3×10^6 cells were washed in phosphate-buffered saline (PBS) and resuspended in 100 μl of annexin binding buffer and incubated with 1 μl of annexin V-Fluorescein-5-isothiocyanate (FITC) or annexin V-Allophycocyanin (APC). […] Data were analyzed using the appropriate software. […]

[6] = tested on: MDA-MB-231 cells (epithelial breast adenocarcinoma cell line with mutated TP53); assay: Dose-response analysis of apoptosis by flow cytometry in MDA-MB-231 cells; format: cell-based, human; details: 24 hours; for IC50: Homo sapiens, MDA-MB-231, flow cytometry; for induction of apoptosis (dose-response): MDA-MB-231, doses from 2 to 60 μM
Method: as §1, §2, §3
MDA-MB-231 cells (epithelial breast adenocarcinoma cell line with mutated TP53) were incubated with a range of doses from 2 to 60 μM of compounds Ia and Id for 24 hours.
as §4

[7] = tested on: HeLa cells (epithelial cervical carcinoma cell line with inactivated p53); assay: Dose-response analysis of apoptosis by flow cytometry in HeLa cells; format: cell-based; details: Homo sapiens, 24 hours, flow cytometry (annexin-V negative cells in respect to untreated cells)
Method: as §1, §2, §3, §5, §6
HeLa cells (epithelial cervical carcinoma cell line with inactivated p53) were incubated with a range of doses from 2 to 40 μM of each compound for 24 hours.
as §7
HeLa cells (epithelial cervical carcinoma cell line with inactivated p53) were incubated with a range of doses from 5 to 40 μM of each compound for 24 hours.

[8] = tested on: TK6 cells (human lymphoblast cell line with wild-type TP53); assay: Dose-response analysis of apoptosis by flow cytometry in TK6 cells; format: cell-based; details: 24 hours; for IC50: Homo sapiens, TK6, flow cytometry; for induction of apoptosis (dose-response): TK6, doses from 2 to 40 μM
Method: as §1, §2, §3
TK6 cells (human lymphoblast cell line with wild-type TP53) were incubated with a range of doses from 2 to 40 μM of compounds Ia and Id for 24 hours.
as §4

B-CLL cells = assay: IC50 by flow cytometry in primary B-CLL cells; format: cell-based; details: Homo sapiens, 24 hours
Method: as §2
as §8, with “Written informed consent was obtained from all patients, in accordance with the Hospital de Bellvitge's Ethical Committee. Mononuclear cells from heparinized peripheral blood samples were isolated by centrifugation on a Ficoll-Hypaque (Seromed, Berlin, Germany) gradient.” left out
as §9
The IC50 of compounds Ia and Id was calculated at 24 hours by flow cytometry analysis, except for Hep3B where crystal violet assay was used. […]

[9] = tested on: Hep3B cells (hepatocellular carcinoma cell line with deleted TP53); assay: Cell viability by crystal violet assay in Hep3B cells; format: cell-based, human; details: 24 hours; for IC50: Homo sapiens, crystal violet assay; for loss of cell viability (dose-response): doses from 2 to 40 μM, crystal violet
Method: as §1, §2
This method allows quantifying the amount of cells that survive after a toxic process, and it consists on cell staining with a colorant, crystal violet. This method is only useful when working with adherent cells that detached after undergoing a toxic process.
After the cells were incubated, in 12 or 24-well plates, with the different stimuli or inhibitors, the cell media was removed, and cells were washed twice with PBS. Then, a solution of Crystal violet at 0.2% (w/v) in 2% ethanol was added during 30 minutes. Following this, the staining solution was removed, and the wells were washed several times with PBS or distilled water until the excess staining that was not incorporated into the cells was eliminated. The plate was air-dried, and the stained cells were lysed in 10% SDS. By spectrophotometric analysis, the absorbance was measured at 595 nm.
The results were then calculated as the percentage of viable cells relative to control cells (cells incubated in the absence of treatment) at the indicated times.
Hep3B cells (hepatocellular carcinoma cell line with deleted TP53) were incubated with a range of doses from 2 to 40 μM of compounds Ia and Id for 24 hours.
as §4

[10] = tested on: T98-G cells (glioblastoma cell line with mutated TP53); assay: Dose-response analysis of apoptosis by flow cytometry in T98-G cells; format: cell-based, human; details: 24 hours; for IC50: Homo sapiens, T98G, flow cytometry; for induction of apoptosis (dose-response): T98-G, doses from 2 to 60 μM
Method: as §1, §3
T98-G cells (glioblastoma cell line with mutated TP53) were incubated with a range of doses from 2 to 60 μM of compounds Ia and Id for 24 hours.
as §4

[11] = tested on: T cells (CLL cells from patients with wild-type TP53); assay: Dose-response analysis by flow cytometry in T cells of CLL patients, wild-type TP53; format: cell-based, human; details: doses from 5 to 40 μM, 24 hours
Method: Viability was measured by flow cytometry and it is expressed as the percentage of nonapoptotic cells (annexin-V FITC negative). A representative patient is shown.
as §2
Peripheral blood lymphocytes from CLL patients were obtained from the Haematology Unit at the IDIBELL-Hospital de Bellvitge, L'Hospitalet de Llobregat, Barcelona, Spain. […] The purity of CLL samples was evaluated with allophycocyanin (APC)-conjugated anti-CD3 and phycoerythrin (PE)-conjugated anti-CD19 (Becton Dickinson, Frankiln Lakes, N.J., USA). Data were analysed by flow cytometry and the analysis was performed with the appropriate software.
as §9

Row | IC50 [1] [µM] | IC50 [3] [µM] | IC50 [6] [µM] | IC50 [7] [µM] | IC50 [8] [µM] | IC50 (B-CLL cells) [µM] | IC50 [9] [µM] | IC50 [10] [µM] | SMILES | induction of apoptosis (dose-response) [1] | Biological activity [2] | induction of apoptosis (dose-response) [4] | induction of apoptosis (dose-response) [5] | induction of apoptosis (dose-response) [6] | induction of apoptosis (dose-response) [8] | loss of cell viability (dose-response) [9] | induction of apoptosis (dose-response) [10] | sensitivity of T cells compared with B cells [11] | induction of apoptosis (dose-response) in B cells ([4]; CLL cells wild-type TP53, B cells, doses from 5 to 40 μM)
1 | 4.5 | 4 | 16 | 20 | 8 | 4 | 14 | 50 | Fc1nc(C2=NC(F)(F)C(F)(c3ccccc3)S2)sc1-c1ccccc1 (centres unmarked) [Ia, 4-fluoro-5-phenyl-2-(4,4,5-trifluoro-5-phenyl-4,5-dihydrothiazol-2-yl)thiazole] | induced apoptosis in a dose-dependent manner | +++ | induced apoptosis in a dose-dependent manner | induced apoptosis in a dose-dependent manner | induced apoptosis in a dose-dependent manner | induced apoptosis in a dose-dependent manner | induced a loss on cell viability in a dose-dependent manner | induced apoptosis in a dose-dependent manner |  | 
2 |  | 3 |  | 8 |  |  |  |  | FC1(F)N=C(c2ncc(-c3ccccc3)s2)SC1(F)c1ccccc1 (centres unmarked) [Ib, 5-phenyl-2-(4,4,5-trifluoro-5-phenyl-4,5-dihydrothiazol-2-yl)thiazole] |  | +++ |  |  |  |  |  |  |  | 
3 |  | 8 |  | 10 |  |  |  |  | FC1(F)N=C(c2ccccc2)SC1(F)c1ccccc1 (centres unmarked) [Ic, 4,4,5-trifluoro-2,5-diphenyl-4,5-dihydrothiazole] |  | ++ |  |  |  |  |  |  | less sensitive | induced apoptosis in a dose-dependent manner

The remaining lines, values behind:

Row | SMILES | IC50 [1] [µM] | IC50 [3] [µM] | IC50 [6] [µM] | IC50 [7] [µM] | IC50 [8] [µM] | IC50 (B-CLL cells) [µM] | IC50 [9] [µM] | IC50 [10] [µM] | induction of apoptosis (dose-response) [1] | Biological activity [2] | induction of apoptosis (dose-response) [4] | induction of apoptosis (dose-response) [5] | induction of apoptosis (dose-response) [6] | induction of apoptosis (dose-response) [8] | loss of cell viability (dose-response) [9] | induction of apoptosis (dose-response) [10] | sensitivity of T cells compared with B cells [11] | induction of apoptosis (dose-response) in B cells ([4]; CLL cells wild-type TP53, B cells, doses from 5 to 40 μM)
4 | FC1(F)N=C(c2ccc(Cl)cc2)SC1(F)c1ccc(Cl)cc1 (centres unmarked) [Id, 4,4,5-trifluoro-2,5-bis(4-chlorophenyl)-4,5-dihydrothiazole] | 3.5 | 3.5 | 4 | 1.75 | 2.5 | 5 | 5 | 7.5 | induced apoptosis in a dose-dependent manner | +++ | induced apoptosis in a dose-dependent manner | induced apoptosis in a dose-dependent manner | induced apoptosis in a dose-dependent manner | induced apoptosis in a dose-dependent manner | induced a loss on cell viability in a dose-dependent manner | induced apoptosis in a dose-dependent manner |  | 
5 | FC1(F)N=C(c2ccc(-c3ccccc3)cc2)SC1(F)c1ccccc1 (centres unmarked) [Ie, 4,4,5-trifluoro-2-(biphenyl-4-yl)-5-phenyl-4,5-dihydrothiazole] |  | 20 |  | 3.5 |  |  |  |  |  | + |  |  |  |  |  |  |  | 
6 | CCOC(=O)c1ccc(C2=NC(F)(F)C(F)(c3ccc(C)cc3)S2)cc1 (centres unmarked) [If, ethyl 4-(4,4,5-trifluoro-5-(p-tolyl)-4,5-dihydrothiazol-2-yl)benzoate] |  | 8 |  | 17 |  |  |  |  |  | ++ |  |  |  |  |  |  |  | 
7 | Clc1ccc(-c2cnc(-c3ccc(Cl)cc3)s2)cc1 [comparative Ad, 2,5-bis(4-chlorophenyl)thiazole, reference compound] |  |  |  |  |  |  |  |  |  | − |  |  |  |  |  |  |  | 
